Measured values taken from BindingDB's records for patent US20230286970 (Italfarmaco, 2023).
pIC50: −log10 of the molar value.

How the values were obtained:
Histone deacetylase 7 = target: T1, Histone deacetylase 7 (Homo sapiens, UniProt Q8WUI4); test: Enzymatic Activity Assay
T1 sequence (Q8WUI4 whole entry): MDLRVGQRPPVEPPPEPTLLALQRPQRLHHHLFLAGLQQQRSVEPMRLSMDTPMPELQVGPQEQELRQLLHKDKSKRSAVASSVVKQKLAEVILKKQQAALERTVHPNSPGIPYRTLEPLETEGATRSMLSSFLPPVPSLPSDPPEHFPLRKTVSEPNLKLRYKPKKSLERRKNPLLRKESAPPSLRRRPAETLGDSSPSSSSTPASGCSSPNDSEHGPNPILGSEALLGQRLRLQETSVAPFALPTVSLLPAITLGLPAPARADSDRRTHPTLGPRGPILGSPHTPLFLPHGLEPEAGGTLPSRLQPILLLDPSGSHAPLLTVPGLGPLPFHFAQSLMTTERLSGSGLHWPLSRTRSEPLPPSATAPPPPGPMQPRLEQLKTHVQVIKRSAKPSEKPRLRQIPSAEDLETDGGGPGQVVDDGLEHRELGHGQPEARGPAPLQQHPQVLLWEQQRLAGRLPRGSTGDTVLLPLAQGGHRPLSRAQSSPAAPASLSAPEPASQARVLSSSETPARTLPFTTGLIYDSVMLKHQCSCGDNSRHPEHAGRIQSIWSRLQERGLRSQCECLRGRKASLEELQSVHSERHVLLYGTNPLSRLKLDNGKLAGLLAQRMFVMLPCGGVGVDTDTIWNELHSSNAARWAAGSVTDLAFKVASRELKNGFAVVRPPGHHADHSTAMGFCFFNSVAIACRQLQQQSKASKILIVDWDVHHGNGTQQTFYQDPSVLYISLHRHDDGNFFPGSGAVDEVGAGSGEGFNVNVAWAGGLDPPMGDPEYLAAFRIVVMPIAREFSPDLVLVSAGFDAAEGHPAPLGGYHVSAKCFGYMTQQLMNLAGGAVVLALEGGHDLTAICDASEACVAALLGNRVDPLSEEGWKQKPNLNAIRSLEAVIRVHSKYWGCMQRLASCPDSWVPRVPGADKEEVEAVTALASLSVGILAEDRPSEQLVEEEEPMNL
Method: (§1) After a period of preincubation (incubation times and temperatures vary for different isoforms and are shown in table 1) 25 μL of solution containing the substrate were added. […] Enzymatic activity on recombinant human HDAC6 and HDAC1 was evaluated (Table 2) for each synthesized compound.

Histone deacetylase 9 = Histone deacetylase 9 (Homo sapiens, UniProt Q9UKV0); test: Enzymatic Activity Assay
Histone deacetylase 9, sequence (Q9UKV0 whole entry): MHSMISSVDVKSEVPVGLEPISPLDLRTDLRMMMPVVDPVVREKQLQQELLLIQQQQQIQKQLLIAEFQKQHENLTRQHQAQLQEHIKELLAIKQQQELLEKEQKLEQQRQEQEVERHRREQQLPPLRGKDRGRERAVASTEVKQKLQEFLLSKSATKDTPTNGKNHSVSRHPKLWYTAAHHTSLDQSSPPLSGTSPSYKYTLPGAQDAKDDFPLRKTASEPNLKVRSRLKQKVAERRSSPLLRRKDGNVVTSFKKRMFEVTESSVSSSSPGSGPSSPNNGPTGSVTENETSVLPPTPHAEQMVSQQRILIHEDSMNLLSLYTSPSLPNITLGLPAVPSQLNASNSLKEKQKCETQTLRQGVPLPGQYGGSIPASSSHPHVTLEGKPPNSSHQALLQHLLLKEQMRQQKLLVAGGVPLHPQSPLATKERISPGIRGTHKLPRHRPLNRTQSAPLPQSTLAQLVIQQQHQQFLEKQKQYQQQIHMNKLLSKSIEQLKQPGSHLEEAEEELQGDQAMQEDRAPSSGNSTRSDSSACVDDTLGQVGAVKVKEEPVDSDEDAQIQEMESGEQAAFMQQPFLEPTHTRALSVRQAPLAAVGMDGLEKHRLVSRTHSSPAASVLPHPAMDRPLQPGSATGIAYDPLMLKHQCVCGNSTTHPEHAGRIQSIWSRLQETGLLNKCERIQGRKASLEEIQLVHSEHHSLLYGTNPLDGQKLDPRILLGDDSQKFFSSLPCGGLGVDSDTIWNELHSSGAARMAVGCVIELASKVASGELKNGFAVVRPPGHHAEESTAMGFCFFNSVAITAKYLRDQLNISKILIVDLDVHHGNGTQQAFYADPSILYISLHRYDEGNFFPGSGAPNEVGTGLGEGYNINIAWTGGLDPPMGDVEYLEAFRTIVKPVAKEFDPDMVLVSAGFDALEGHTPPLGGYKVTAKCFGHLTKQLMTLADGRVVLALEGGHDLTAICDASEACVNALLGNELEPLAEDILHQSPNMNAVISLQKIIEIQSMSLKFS
Method: as §1

pIC50 (Histone deacetylase 7) | pIC50 (Histone deacetylase 9) | SMILES
< 4.52 | < 4.52 | Nc1nc2ccc(-c3cn(Cc4ccc(-c5nnc(C(F)F)o5)cc4)nn3)cc2s1 [US20230286970, Compound 14]
< 4.52 | < 4.52 | Nc1ccc(-c2cn(Cc3ccc(-c4nnc(C(F)F)o4)c(F)c3)nn2)cn1 [US20230286970, Compound 15]
